The record followed here is publication PMC8307404, “Crystal Structure-Guided Design of Bisubstrate Inhibitors and Photoluminescent Probes for Protein Kinases of the PIM Family” (Molecules, 2021).

Each structure is given as a SMILES string. Where two headings read alike, the source gives them in different places. Square brackets hold non-standard residues; d marks the D form. Peptide text beside a SMILES is read from it. * marks the point of attachment. X3 = O=C(CCCCCNCc1nc2c(sc3cc(Br)cnc32)c(=O)[nH]1)* Where only a bound is given, the exact number is not on record here.

For data set [1], the target named is T1, PKAcα (Homo sapiens, UniProt P17612).
T1 construct: purchased Biaffin GmbH & Co KG (Kassel, Germany)
In words: Binding/displacement assay with FA or TGLI readout. Here is the method: The affinities of the compounds toward the PIM family PKs were determined in a binding/displacement assay with measurement of fluorescence anisotropy (FA) and time-gated luminescence intensity (TGLI) (Table 2). For the initial assessment of the selectivity of compounds, PKAcα was used as the reference basophilic kinase.
Optical FA measurement modules for 5-TAMRA-labeled compounds (ex. 540(20) nm, em. 590(20) nm and 590(20) nm), for Cy5-labeled compounds (ex. 590(50) nm, em. 675(50) nm and 675(50) nm), and optical TGLI measurement modules for ARC-1451 (ex. 330(60) nm, em. 590(50) nm), for ARC-1188 (ex. 330(60) nm, em. 675(50) nm) were used for assays with PHERAstar microplate reader (BMG Labtech; Ortenberg, Germany). TGLI measurements were performed with a delay time of 50 μs and integration of the signal for 150 μs. In each measurement, emission from 200 flashes of excitation radiation was collected. The measurement solutions (20 µL volumes) were prepared in black 384-well low-binding surface microtiter plates (Corning #4514; Kennebunk, ME, USA) and incubated for 20 min at 30 °C before the measurements. The assay buffer contained HEPES hemisodium salt (pH 7.4, 50 mM), NaCl (150 mM), dithiothreitol (5 mM), bovine serum albumin (0.5 mg/mL), and Tween-20 (0.005%). GraphPad Prism v. 5.04 (GraphPad Software, Inc.) was used for data analysis with FA [32] or TGLI [33] readouts. Representative titration curves can be found in Supplementary Figure S7.

Data set [2] deals with panel of 140 PKs. Kind of data set: Kinase selectivity profiling, panel metrics. Conditions: 1 µM compound; kinases other than PIM family. In kind it is biochemical, human. Here is the method: (§1) Kinase selectivity profiling was performed using the commercial service provided by the MRC PPU International Centre for Kinase Profiling (Dundee, UK) using a radiometric filter-binding assay. Kinases used for analysis were of human origin. The ATP concentration applied for inhibition measurements was at or below the ATP KM value of the particular PK. ARC-3125 and ARC-3126 were screened against 139 PKs, whereas compounds 1, 2, and 8 were screened against 140 PKs. The final total concentration of inhibitors in the selectivity panel was 1 µM. Residual activities were expressed as the percentage of retained activity compared to the control without inhibitor.
From the residual activities, values of the Gini coefficient and hit rate were calculated for each individual compound. The Gini coefficient is a single-value metric whose value for a specific inhibitor depends on the number and origin of the PKs in the panel, but also on concentration of the tested compound [70]. Hit rate is the number of kinases inhibited by over 50%.

The subject of data set [3] is PIM family. In words: Kinase profiling (radiometric filter-binding), PIM family. Format: biochemical, human. Conditions: 1 µM compound. Here is the method: as §1
Data set [4] has as its system U2OS cells. Kind of data set: Cellular uptake of fluorescent probes, live-cell microscopy. Format: cell-based, human. Conditions: 1–5 μM, 10–60 min. As for the experimental part:
For studies of the general internalization properties of ARCs, the cells were seeded at the density of 12,000–25,000 cells per well onto an Ibidi μ-plate (96-well; Ibidi GmbH, Planegg, Germany). After 24 h incubation in growth medium, the cells were treated for 10 min, 30 min, or 1 h with dilutions of compounds 6, 7, 8, or ARC-2090 (5 μM, 2.5 μM, or 1 μM final concentration) in the phenol red-free DMEM/Ham’s F12 medium supplemented with 2% ccFBS and 2 mM glutamine. Next, cells were washed twice with PBS, and imaging medium (MEMO + Supplement A 1:100) was applied subsequently. Cells were imaged with Cytation 5 wide-field microscope (BioTek; Winooski, VT, USA) using 20× air objective and the following settings: for Cy5, 623 nm LED (intensity: 2) and Cy5 filter cube (685 nm) with 104 ms integration time and detector gain value of 2; for TAMRA, 523 nm LED (intensity: 7) and RFP filter cube (593 nm) with 252 ms integration time and detector gain value of 16; for bright-field, white LED with intensity 6, 186 ms integration time and detector gain value of 15. Four independent experiments were performed.

Where [5] appears, read: TGLI or FA readout, mean ± SEM, N = 2, read-out: KD, nM (PKAcα).

For `N=C(N)NCCC[C@@H](NC(=O)CCCCCNCc1nc2c(sc3cc(Br)cnc32)c(=O)[nH]1)C(=O)N[C@H](CCCNC(=N)N)C(=O)N[C@H](CCCNC(=N)N)C(=O)N[C@H](CCCNC(=N)N)C(=O)N[C@H](CCCNC(=N)N)C(=O)N[C@H](CCCNC(=N)N)C(=O)N[C@H](CCCCN)C(N)=O` [ARC-3126, BPTP-Ahx-(D-Arg)6-D-Lys-NH2] (X3-[dR][dR][dR][dR][dR][dR][dK]-NH2), the Kd in data set [1] (setting [5]) was > 18500 nM; in data set [1] (read-out: KD toward PKAcα), > 18000 nM.

Turning to `N=C(N)NCCC[C@@H](NC(=O)CNC(=O)[C@@H](CCCNC(=N)N)NC(=O)[C@@H](CCCNC(=N)N)NC(=O)CCCCCCCNCc1nc2c(sc3cc(Br)cnc32)c(=O)[nH]1)C(=O)N[C@H](CCCCN)C(N)=O` [Compound 1, BPTP-Aoc-(D-Arg)2-Gly-D-Arg-D-Lys-NH2], in data set [1] (setting [5]), the Kd came out at 2250 ± 411 nM. Also, the “residual activity of other basophilic kinases in the panel” value in data set [2] is given as “above 81%”.

In the case of `N=C(N)NCCC[C@@H](NC(=O)CNC(=O)[C@@H](CCCNC(=N)N)NC(=O)[C@@H](CCCNC(=N)N)NC(=O)CCCCCCCNCc1nc2c(sc3ccc(Br)cc32)c(=O)[nH]1)C(=O)N[C@H](CCCCN)C(N)=O` [Compound 2, BBTP-Aoc-(D-Arg)2-Gly-D-Arg-D-Lys-NH2], in data set [1] (setting [5]), the Kd is 853 ± 28 nM. In addition, in data set [3], the “residual activity, PIM family, all isoforms” value is given as 4–7%.

Consider `N=C(N)NCCC[C@@H](NC(=O)CNC(=O)[C@@H](CCCNC(=N)N)NC(=O)[C@@H](CCCNC(=N)N)NC(=O)Cn1cc(CNCc2nc3c(sc4ccc(Br)cc43)c(=O)[nH]2)nn1)C(=O)N[C@H](CCCCN)C(N)=O` [Compound 3, BBTP-Amt-(D-Arg)2-Gly-D-Arg-D-Lys-NH2], for which the Kd in data set [1] (setting [5]) stood at 1500 ± 266 nM.

Regarding `CN(C)c1ccc2c(c1)Oc1cc(N(C)C)ccc1C21OC(=O)c2cc(C(=O)NCCCC[C@@H](NC(=O)[C@@H](CCCNC(=N)N)NC(=O)CNC(=O)[C@@H](CCCNC(=N)N)NC(=O)[C@@H](CCCNC(=N)N)NC(=O)CCCCc3cn(Cc4nc5c(sc6ccc(Br)cc65)c(=O)[nH]4)nn3)C(N)=O)ccc21` [Compound 8, BBTP-Tap-(D-Arg)2-Gly-D-Arg-[D-Lys(5-TAMRA)]-NH2], the Kd in data set [1] (setting [5]) was > 1020 nM. In addition, the “ability to cross the plasma membrane / internalization” value in data set [4] is on record as “much lower internalization efficiency”.
